Measured values as given in patent publication US20240024520A1, “AUTONOMOUS KNOB DOMAIN PEPTIDES” (UCB BIOPHARMA SRL, priority 2020, published 2024).
Like-named read-outs stand apart in the source and are kept apart here. Bridge positions count the residues as written; N and C are the ends. Ends that are not written are not given here. Peptide text beside a SMILES is read from it.

What was measured:
C5 [1] = molecular target: T1, C5 (Homo sapiens, UniProt P01031); test: Biacore multi-cycle kinetics on human C5; assay type: binding; conditions: for mean stoichiometric ratio: measured Rmax divided by theoretical Rmax; for binding to human C5: chemical knob domains and variants, result in words
Experimental: Binding of knob domain peptides to human C5 was measured by SPR, using a multi-cycle kinetics method as follows:
(§1) Kinetics were measured using a Biacore 8K (GE Healthcare) with a CM5 chip, which was prepared as follows: EDC/NHS was mixed at 1:1 ratio (flow rate, 10 μL/min; contact time, 30 seconds), human C5 protein at 1 μg/mL in pH 4.5 sodium-acetate buffer, were injected over flow cell one only (flow rate, 10 μL/min; contact time, 60 seconds). Final immobilization levels in the range of 2000-3000 response units (RU) were obtained, to yield theoretical Rmax values of ˜50-60 RU. Serial dilutions of peptide were prepared in HBS-EP buffer and injected (flow rate, 30 μL/min; contact time, 240 seconds; dissociation time, 6000 seconds). After each injection, the surface was regenerated with two sequential injections of 2M MgCl2 (flow rate, […]; contact time, 30 seconds). Binding to the reference surface was subtracted, and the data were fitted to a single site binding model, using Biacore evaluation software.

rabbit erythrocytes = test: Alternative pathway haemolysis assay; assay type: cell-based; conditions: normal human sera; result in words
Experimental: (§2) Haemolysis assays: For AP, 50 μL of 24% normal human sera (Complement Technology), 50 of 20 mM MgEGTA (Complement Technology), and 48 μL of GVB0 buffer (0.1% gelatin, […], 145 mM NaCl, 0.025% NaN3, pH 7.3, Complement Technology) were aliquoted into a single well of a 96-well tissue culture plate (USA Scientific) then mixed with 2 μL of inhibitors serially diluted in DMSO. Following equilibration for 15 minutes at room temperature, 50 μL of rabbit erythrocytes (Complement Technology), at 2.5×10^7 per well, were added to the plates, which were then incubated at 37° C. for 30 minutes. Plates were centrifuged at 1,000×g for 3 min and 100 μL of supernatant was collected, transferred to another 96-well tissue culture treated plate, and absorbance was measured at 412 nm. For CP, […], 48 μL of GVB++ buffer (0.1% gelatin, 5 mM Veronal, 145 mM NaCl, 0.025% NaN3, pH 7.3 with 0.15 mM CaCl2 and 0.5 mM MgCl2, Complement Technology) and 2 μL of inhibitors serially diluted in DMSO were aliquoted into a single well and equilibrated as described. Next, 100 μL of antibody-sensitized sheep red blood cells (Complement Technology) at 5×10^7 per well were added to the plate, which was then incubated at 37° C. for 1 hour. Samples were subsequently processed as described.

[2] = test system: Classical pathway C5b deposition; test: Classical pathway C5b (neo-epitope) deposition ELISA, SVAR kit; assay type: biochemical, human; conditions: chemFE peptides, Example 10; result in words
From the text: (§3) To elucidate the functional consequences of the knob domain peptides binding to human C5, we performed complement activation assays using the SVAR complement activation ELISA which measured CP (Classical Pathway) and AP (Alternative Pathway) activation in human serum, through formation of the C5b neo-epitope. We also developed orthogonal ELISA assays which measured total complement and AP specific mediated C3b and MAC (Membrane Attack Complex) deposition. For all activation conditions, we also tracked C5a release via ELISA.
(§4) For the C5b ELISA, assays were run using the CP and AP Complement functional ELISA kits (SVAR), as per the manufacturer's protocol. For sample preparation: serum was diluted as per the respective protocol for the CP and AP assays. Titrations of peptides were prepared and allowed to incubate for 15 minutes at room temperature, prior to plating.
(§5) Functional activity of chemically derived knob domain peptides was confirmed in a complement activation ELISAs which measured inhibition of C5b neoepitope deposition.
(§6) Finally, we tested our constructs in AP and CP complement activation ELISAs, which measured C5b neoepitope deposition.
(§7) Complement ELISA: assays were run using the CP and AP Complement functional ELISA kits (SVAR, COMPL 300 RUO), as per the manufacturer's protocol. For sample preparation, serum was diluted as per the respective protocol for the CP and AP assays; serial dilutions of peptides were prepared and allowed to incubate with serum for 15 minutes at room temperature, prior to plating.

[3] = test system: Alternative pathway C5b deposition; test: Alternative pathway C5b (neo-epitope) deposition ELISA, SVAR kit; assay type: biochemical, human; conditions: chemFE peptides, Example 10; result in words
From the text: as §3, §4, §5, §6, §7

C5 [4] = molecular target: T1, C5; test: Biacore (SPR) single-cycle kinetics on immobilised C5; assay type: binding
Experimental: Binding to C5 was measured using surface plasmon resonance (SPR) single-cycle kinetics as described below.
Biacore single-cycle kinetics. Using a Biacore 8K (GE Healthcare), C5 was immobilized on a CM5 chip by amine coupling. Flow cells were activated using EDC/NHS (flow rate, 10 μL/min; contact time, 30 s). C5, at 1 μg/mL in pH 4.5 Sodium-acetate buffer, was immobilized on flow cell two only (flow rate, 10 μL/min; contact time, 420 s). Finally, ethanolamine was applied to both flow cells (flow rate, 10 μL/min; contact time, 420 s). A final immobilization level of approximately 2,000 response units was obtained.
Single-cycle kinetics were measured using titrations in HBS-EP buffer. A high flow rate of 40 μL/min was used, with a contact time of 230 s and a dissociation time of 900 s. Binding to the reference surface was subtracted, and the data were fitted to a single-site binding model using Biacore evaluation software.
We measured individual rate constants (kon and koff) and equilibrium dissociation constants (KD) for knob domain peptides binding to C5 by the Biacore single-cycle kinetics method described above.
We used SPR single cycle kinetics to measure binding to human C5 protein.

[5] = test system: antibody-sensitized sheep red blood cells; test: Classical pathway haemolysis assay; assay type: cell-based; conditions: normal human sera; result in words
Experimental: as §2

rat C5 protein = rat C5 protein (Rattus norvegicus, UniProt P08650); test: Biacore kinetics on rat C5 (cross-reactivity); assay type: binding; conditions: SPR
Experimental: as §1, with “rat” for “human”, “ug/mL” for “μg/mL”

[6] = read-out: mean Koff, multi-cycle kinetics, n = 3 experiments
[7] = read-out: mean Kon, multi-cycle kinetics, n = 3 experiments

rat C5 protein, sequence (P08650 19-1681): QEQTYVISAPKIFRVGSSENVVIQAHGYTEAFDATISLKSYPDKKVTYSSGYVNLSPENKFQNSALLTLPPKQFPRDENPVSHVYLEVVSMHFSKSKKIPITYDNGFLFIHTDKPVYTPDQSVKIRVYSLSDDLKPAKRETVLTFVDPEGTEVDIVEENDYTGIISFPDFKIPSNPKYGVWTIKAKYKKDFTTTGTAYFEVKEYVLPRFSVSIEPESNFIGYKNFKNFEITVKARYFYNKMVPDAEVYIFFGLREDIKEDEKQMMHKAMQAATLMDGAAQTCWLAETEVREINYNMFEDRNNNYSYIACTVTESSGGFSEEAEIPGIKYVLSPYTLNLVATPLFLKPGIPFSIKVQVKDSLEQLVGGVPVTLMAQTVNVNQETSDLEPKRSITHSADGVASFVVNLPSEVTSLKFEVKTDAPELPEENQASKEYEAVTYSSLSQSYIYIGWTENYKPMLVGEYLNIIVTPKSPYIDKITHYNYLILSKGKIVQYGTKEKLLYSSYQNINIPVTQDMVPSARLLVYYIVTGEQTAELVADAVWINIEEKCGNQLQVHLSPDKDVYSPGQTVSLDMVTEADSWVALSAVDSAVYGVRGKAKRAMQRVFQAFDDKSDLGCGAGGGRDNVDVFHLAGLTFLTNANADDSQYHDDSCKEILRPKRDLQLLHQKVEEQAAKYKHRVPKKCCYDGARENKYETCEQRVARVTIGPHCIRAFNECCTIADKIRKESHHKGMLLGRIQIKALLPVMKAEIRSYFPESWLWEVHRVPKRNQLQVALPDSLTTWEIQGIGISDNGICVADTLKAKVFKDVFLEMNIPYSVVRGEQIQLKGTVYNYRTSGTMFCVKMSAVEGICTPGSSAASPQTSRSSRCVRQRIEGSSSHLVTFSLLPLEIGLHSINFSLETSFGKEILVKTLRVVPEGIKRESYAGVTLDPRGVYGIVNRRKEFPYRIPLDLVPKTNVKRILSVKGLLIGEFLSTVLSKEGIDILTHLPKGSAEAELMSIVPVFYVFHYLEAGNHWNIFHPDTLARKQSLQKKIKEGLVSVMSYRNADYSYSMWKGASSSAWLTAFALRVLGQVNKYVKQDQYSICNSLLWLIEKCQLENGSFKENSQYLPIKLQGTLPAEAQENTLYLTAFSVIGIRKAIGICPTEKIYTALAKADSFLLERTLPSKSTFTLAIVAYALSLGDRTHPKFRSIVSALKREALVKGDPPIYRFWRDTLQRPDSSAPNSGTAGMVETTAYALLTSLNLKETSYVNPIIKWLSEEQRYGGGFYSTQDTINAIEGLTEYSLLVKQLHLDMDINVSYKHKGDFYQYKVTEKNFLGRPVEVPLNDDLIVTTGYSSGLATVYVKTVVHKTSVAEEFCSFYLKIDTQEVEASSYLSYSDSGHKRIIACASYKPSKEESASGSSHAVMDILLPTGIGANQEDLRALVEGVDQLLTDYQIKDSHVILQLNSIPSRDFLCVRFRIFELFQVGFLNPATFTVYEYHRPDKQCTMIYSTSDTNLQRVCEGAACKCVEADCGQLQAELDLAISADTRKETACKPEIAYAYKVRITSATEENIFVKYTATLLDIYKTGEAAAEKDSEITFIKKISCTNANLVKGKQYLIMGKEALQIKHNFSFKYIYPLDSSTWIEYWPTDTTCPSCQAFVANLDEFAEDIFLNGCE
T1 sequence (P01031 19-1676): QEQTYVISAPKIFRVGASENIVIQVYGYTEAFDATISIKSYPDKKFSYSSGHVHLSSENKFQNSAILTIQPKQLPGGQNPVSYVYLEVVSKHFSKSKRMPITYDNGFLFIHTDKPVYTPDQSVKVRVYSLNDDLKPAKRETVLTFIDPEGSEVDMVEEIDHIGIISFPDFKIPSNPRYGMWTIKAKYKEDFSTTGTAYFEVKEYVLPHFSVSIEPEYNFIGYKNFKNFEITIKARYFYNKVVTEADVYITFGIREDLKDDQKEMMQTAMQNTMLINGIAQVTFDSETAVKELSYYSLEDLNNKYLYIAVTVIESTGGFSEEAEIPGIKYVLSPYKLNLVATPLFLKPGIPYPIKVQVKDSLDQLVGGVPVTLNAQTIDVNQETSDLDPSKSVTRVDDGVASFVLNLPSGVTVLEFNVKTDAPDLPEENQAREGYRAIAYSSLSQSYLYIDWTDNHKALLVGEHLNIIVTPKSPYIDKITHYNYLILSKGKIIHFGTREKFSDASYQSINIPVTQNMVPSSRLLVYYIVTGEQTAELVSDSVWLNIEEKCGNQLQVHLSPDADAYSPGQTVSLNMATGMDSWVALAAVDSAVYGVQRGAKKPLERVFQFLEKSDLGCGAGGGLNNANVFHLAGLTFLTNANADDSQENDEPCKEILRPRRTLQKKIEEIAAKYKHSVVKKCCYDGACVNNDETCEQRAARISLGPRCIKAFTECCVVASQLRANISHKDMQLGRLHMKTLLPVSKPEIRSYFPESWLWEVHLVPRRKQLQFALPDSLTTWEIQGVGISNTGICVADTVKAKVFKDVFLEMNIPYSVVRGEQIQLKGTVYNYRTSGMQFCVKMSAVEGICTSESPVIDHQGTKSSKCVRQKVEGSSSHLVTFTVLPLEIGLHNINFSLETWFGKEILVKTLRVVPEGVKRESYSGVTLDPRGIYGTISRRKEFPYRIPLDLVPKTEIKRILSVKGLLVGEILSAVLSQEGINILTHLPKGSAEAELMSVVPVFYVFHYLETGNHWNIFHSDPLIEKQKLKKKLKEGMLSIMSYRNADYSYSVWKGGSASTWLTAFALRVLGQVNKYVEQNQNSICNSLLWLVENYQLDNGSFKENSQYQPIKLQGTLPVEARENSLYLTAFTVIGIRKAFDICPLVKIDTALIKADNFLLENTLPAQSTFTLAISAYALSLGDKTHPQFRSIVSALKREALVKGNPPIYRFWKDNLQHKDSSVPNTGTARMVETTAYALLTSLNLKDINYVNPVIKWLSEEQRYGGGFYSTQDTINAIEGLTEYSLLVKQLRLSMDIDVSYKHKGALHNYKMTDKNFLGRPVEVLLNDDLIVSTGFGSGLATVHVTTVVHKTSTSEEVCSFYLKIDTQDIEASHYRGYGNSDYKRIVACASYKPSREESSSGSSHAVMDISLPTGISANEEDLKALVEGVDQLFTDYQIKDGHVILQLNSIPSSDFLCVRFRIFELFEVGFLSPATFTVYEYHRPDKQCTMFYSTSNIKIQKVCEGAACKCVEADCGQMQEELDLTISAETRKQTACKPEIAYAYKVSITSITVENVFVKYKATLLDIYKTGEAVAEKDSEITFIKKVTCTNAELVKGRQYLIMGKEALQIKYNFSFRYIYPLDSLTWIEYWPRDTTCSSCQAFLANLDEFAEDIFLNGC

Compound | mean stoichiometric ratio (C5 [1]; n = 3 experiments) | inhibition of haemolysis, AP (rabbit erythrocytes) | inhibition of CP, C5b deposition [2] | inhibition of AP, C5b deposition [3] | koff (C5 [1]; [6]) | kon (C5 [1]; [7]) | binding to human C5 (C5 [1]) | inhibition of haemolysis, CP [5] | cross reactivity with rat C5 protein (rat C5 protein) | also measured
CC[C@H](C)[C@@H]1NC(=O)[C@H](C)NC(=O)[C@H](C(C)C)NC(=O)CNC(=O)[C@@H]2CSSC[C@@H](C(=O)NCC(=O)N[C@@H](Cc3c[nH]cn3)C(=O)N[C@@H](Cc3ccccc3)C(=O)N[C@@H](CC(C)C)C(=O)N[C@@H](CC(N)=O)C(=O)N[C@@H](CO)C(=O)NCC(=O)N3CCC[C@H]3C(=O)N[C@@H](CC(N)=O)C(=O)N[C@H](C(=O)N[C@@H](CO)C(=O)N3CCC[C@H]3C(=O)N[C@@H](Cc3ccc(O)cc3)C(=O)N[C@H](C(=O)N[C@@H](CO)C(=O)N[C@H](C(=O)O)[C@@H](C)O)C(C)C)[C@@H](C)CC)NC(=O)CNC(=O)[C@H](Cc3c[nH]c4ccccc34)NC(=O)[C@H](CCCNC(=N)N)NC(=O)CNC(=O)[C@H](CSSC[C@H](NC(=O)[C@@H](N)[C@@H](C)O)C(=O)N3CCC[C@H]3C(=O)N[C@@H](CCC(=O)O)C(=O)NCC(=O)N[C@@H](Cc3c[nH]c4ccccc34)C(=O)N[C@@H](CO)C(=O)N[C@@H](CCC(=O)O)C(=O)N2)NC(=O)[C@H](CCC(=O)O)NC(=O)[C@H](Cc2ccc(O)cc2)NC(=O)CNC(=O)[C@H](Cc2ccc(O)cc2)NC1=O [K92chemFE] (H-TCPEGWSECGVAIYGYECGRWGCGHFLNSGPNISPYVST-OH; disulfide 2-18, 9-23) | 0.40 | active solely in the AP-driven haemolysis assay | modest, dose dependent enhancement | partially inhibited |  |  |  |  |  | koff (C5 [1]; multi-cycle kinetics, n = 3 experiments, read-out: mean Koff): 0.000101 s⁻¹; kon (C5 [1]; multi-cycle kinetics, n = 3 experiments, read-out: mean Kon): 283000 M⁻¹ s⁻¹
CSCC[C@@H]1NC(=O)[C@@H]2CCCN2C(=O)[C@@H]2CSSC[C@H](NC(=O)[C@@H](N)CO)C(=O)N3CCC[C@H]3C(=O)N[C@@H](CC(=O)O)C(=O)NCC(=O)N[C@@H](Cc3ccccc3)C(=O)N[C@@H](CO)C(=O)N[C@@H](Cc3ccc(O)cc3)C(=O)N[C@@H](CCCNC(=N)N)C(=O)N[C@@H](CO)C(=O)N[C@@H](Cc3c[nH]c4ccccc34)C(=O)N[C@@H](CC(=O)O)C(=O)N[C@@H](CC(=O)O)C(=O)N[C@@H](Cc3ccccc3)C(=O)N[C@@H](CSSC[C@@H](C(=O)N[C@@H](CC(C)C)C(=O)N[C@@H](C)C(=O)N3CCC[C@H]3C(=O)N[C@@H](CCCNC(=N)N)C(=O)N[C@@H](CC(N)=O)C(=O)O)NC(=O)[C@H](CCCNC(=N)N)NC(=O)CNC(=O)[C@H](C(C)C)NC1=O)C(=O)N2 [K149B] (H-SCPDGFSYRSWDDFCCPMVGRCLAPRN-OH; disulfide 2-16, 15-22; N-terminus assumed) | 0.81 |  |  |  | 0.00417 s⁻¹ | 15600 M⁻¹ s⁻¹ |  |  |  | Kd (C5 [1]): 269 nM; fold lower affinity (relative to K149chemSD-A) (C5 [1]): approximately 35 fold; Kd (C5 [4]): 246 nM; kd (C5 [4]; chemically derived knob domain peptides, n = 1): 0.00732 s⁻¹; kon (C5 [4]; read-out: ka): 29700 M⁻¹ s⁻¹
CSCC[C@@H]1NC(=O)[C@@H]2CCCN2C(=O)[C@@H](NC(=O)[C@@H]2CSSC[C@H](NC(=O)[C@@H](N)CO)C(=O)N3CCC[C@H]3C(=O)N[C@@H](CC(=O)O)C(=O)NCC(=O)N[C@@H](Cc3ccccc3)C(=O)N[C@@H](CO)C(=O)N[C@@H](Cc3ccc(O)cc3)C(=O)N[C@@H](CCCNC(=N)N)C(=O)N[C@@H](CO)C(=O)N[C@@H](Cc3c[nH]c4ccccc34)C(=O)N[C@@H](CC(=O)O)C(=O)N[C@@H](CC(=O)O)C(=O)N[C@@H](Cc3ccccc3)C(=O)N2)CSSC[C@@H](C(=O)N[C@@H](CC(C)C)C(=O)N[C@@H](C)C(=O)N2CCC[C@H]2C(=O)N[C@@H](CCCNC(=N)N)C(=O)N[C@@H](CC(N)=O)C(=O)O)NC(=O)[C@H](CCCNC(=N)N)NC(=O)CNC(=O)[C@H](C(C)C)NC1=O [K149chemFE] (H-SCPDGFSYRSWDDFCCPMVGRCLAPRN-OH; disulfide 2-15, 16-22 (inferred); N-terminus assumed) | 0.85 |  | non-functional, silent binder | non-functional, silent binder |  |  | equal affinity |  |  | binding to C5 (C5 [1]; after reduction and capping of cysteines with iodoacetamide (loss of disulphide bonds)): entirely abrogated binding; Kd (C5 [1]; multi-cycle kinetics, n = 3 experiments, read-out: mean KD): 5.57 nM
GCPPGYKSGVDCSPGSECKWGCYAVDGRRYGGYGADSGVGS-OH (disulfide 2-18, 12-22) [K57chemFE] | 0.65 | potent and fully efficacious inhibitor | potent and fully efficacious inhibitor | potent and fully efficacious inhibitor | 0.000579 s⁻¹ | 260000 M⁻¹ s⁻¹ |  | potent and fully efficacious inhibitor | specific for human C5 | 
K8 chemFE cyclic: cyclic peptide from head-to-tail cyclisation of the K8chemFE knob domain (cyclo(VCPDGFNWGYGCAAGSSRFCTRHDWCCYDERADSHTYGFCTGNRV); also: disulphides formed by free energy method, pairing not given here) |  | functionally active complement inhibitor |  |  |  |  | bound human C5 | functionally active complement inhibitor |  | 
VCPDGFNWGYGCAAGSSRFCTRHDWCCYDERADSHTYGFCTGNRV-OH (disulfide 2-26, 12-40, 20-27) [K8chemFE] | 0.25 |  | partial inhibitor | partial inhibitor | 0.000385 s⁻¹ | 70500 M⁻¹ s⁻¹ |  |  | tightly bound | cross reactivity with rat C5 protein (rat C5 protein; listed as K8chem): cross reactive
